Measured values: EPA's ToxValDB 9.5 (doi:10.2903/j.efsa.2008.150r)
In brackets after ≈: the same amount, converted by molar mass.

How the values were obtained:
Anas platyrhynchos = details: for LD50: oral, mortality; for NOEL: reproductive
Rattus norvegicus = details: for LD50: acute, mortality
Typhlodromus pyri = test: LR50; higher = less toxic; details: not reported; mortality
Aphidius rhopalosiphi = test: LR50; higher = less toxic; details: not reported; mortality
Apis mellifera = details: acute; duration: 48 hours; oral; unspecified; mortality
Tagia sp. = details: acute; duration: 14 days; mortality

| SMILES | LD50 (Anas platyrhynchos; short-term, feed) | LD50 (Rattus norvegicus; oral) | NOEL (Rattus norvegicus; reproduction developmental, M, reproduction) | LR50 (Typhlodromus pyri) | LR50 (Aphidius rhopalosiphi) | LD50 (Anas platyrhynchos; acute, unspecified) | NOEL (Anas platyrhynchos; duration: 6 weeks) | NOEL (Anas platyrhynchos; duration: 20 weeks, body weight) | LD50 (Apis mellifera) | LC50 (Tagia sp.) | LD50 (Rattus norvegicus) | NOEL (Rattus norvegicus; chronic) | LOAEL (Rattus norvegicus; chronic, duration: 2 years, organ weight) | NOAEL (Rattus norvegicus; reproduction developmental, organ weight) | LC50 (Oncorhynchus mykiss; acute, duration: 96 hours, mortality) | NOEC (Oncorhynchus mykiss; chronic/long-term, duration: 28 days, growth) |
| --- | --- | --- | --- | --- | --- | --- | --- | --- | --- | --- | --- | --- | --- | --- | --- | --- |
| CS(=O)(=O)c1ccc(C(=O)O)c(Cl)c1 [Benzoic acid, 2-chloro-4-(methylsulfonyl)-] | > 2010 mg/kg-day | > 2000 mg/kg-day | 969 mg/kg-day | – | – | – | – | – | – | – | – | – | – | – | – | – |
| CS(=O)(=O)c1ccc(C(=O)C2C(=O)CCCC2=O)c(Cl)c1 [Sulcotrione] | > 1260 mg/kg-day | – | – | > 450 g/ha | > 450 g/ha | > 1350 mg/kg-day | 17 mg/kg-day | < 10.9 mg/kg-day | 50 µg/piece | > 1000 mg/kg | > 5000 mg/kg-day | 0.5 mg/kg-day | 0.04 mg/kg-day | 0.06 mg/kg-day | 227 µg/mL (≈ 690 µM) | 3.2 mg/L |
